Reference: ChEMBL document CHEMBL1201862, “PubChem BioAssay data set” (2004)
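Exposure lasted 48 hours, with cells grown in 96-well plates and compounds tested at five concentrations. Here, GI50 denotes the concentration required for 50% inhibition of growth.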 The source made the active and inactive calls. Cut-off read from the data, not from the text of the source: active = GI50 up to about 1.1 µM and inactive = higher.

How the values were obtained:
Assay in all cases: NCI-60 cell line screen, 48 h
SW-620 = tested on: SW-620
SF-539 = tested on: SF-539
UO-31 = tested on: UO-31
SK-MEL-2 = tested on: SK-MEL-2
DU-145 = tested on: DU-145
RXF 393 = tested on: RXF 393
NCI/ADR-RES = tested on: NCI/ADR-RES
MCF7 = tested on: MCF7
PC-3 = tested on: PC-3
NCI-H226 = tested on: NCI-H226
HOP-62 = tested on: HOP-62
SN12C = tested on: SN12C
OVCAR-3 = tested on: OVCAR-3
SR = tested on: SR
NCI-H460 = tested on: NCI-H460
A498 = tested on: A498
MOLT-4 = tested on: MOLT-4
NCI-H522 = tested on: NCI-H522
HT-29 = tested on: HT-29
Hs-578T = tested on: Hs-578T
LOX IMVI = tested on: LOX IMVI
OVCAR-8 = tested on: OVCAR-8
OVCAR-4 = tested on: OVCAR-4
HL-60 = tested on: HL-60
HOP-92 = tested on: HOP-92
TK-10 = tested on: TK-10
OVCAR-5 = tested on: OVCAR-5
A549 = tested on: A549
SK-MEL-5 = tested on: SK-MEL-5
EKVX = tested on: EKVX
K562 = tested on: K562
HCT-116 = tested on: HCT-116
KM12 = tested on: KM12
786-0 = tested on: 786-0
SNB-75 = tested on: SNB-75
CAKI-1 = tested on: CAKI-1
ACHN = tested on: ACHN
SK-OV-3 = tested on: SK-OV-3
MDA-MB-231 = tested on: MDA-MB-231
SF-268 = tested on: SF-268
SNB-19 = tested on: SNB-19
MDA-N = tested on: MDA-N
IGROV-1 = tested on: IGROV-1
Malme-3M = tested on: Malme-3M
UACC-62 = tested on: UACC-62
COLO 205 = tested on: COLO 205
CCRF-CEM = tested on: CCRF-CEM
HCT-15 = tested on: HCT-15
SK-MEL-28 = tested on: SK-MEL-28
UACC-257 = tested on: UACC-257
M14 = tested on: M14
MDA-MB-435 = tested on: MDA-MB-435
RPMI-8226 = tested on: RPMI-8226
U-251 = tested on: U-251
NCI-H23 = tested on: NCI-H23
SF-295 = tested on: SF-295
HCC 2998 = tested on: HCC 2998
T47D = tested on: T47D

Compound: CC(C)n1c(=O)[nH]n(-c2ccccc2)c1=O
- GI50 (SW-620): > 100 µM (inactive)
- GI50 (SF-539): > 100 µM (inactive)
- GI50 (UO-31): > 100 µM (inactive)
- GI50 (SK-MEL-2): > 100 µM (inactive)
- GI50 (DU-145): > 100 µM (inactive)
- GI50 (RXF 393): > 100 µM (inactive)
- GI50 (NCI/ADR-RES): > 100 µM (inactive)
- GI50 (MCF7): > 100 µM (inactive)
- GI50 (PC-3): > 100 µM (inactive)
- GI50 (NCI-H226): > 100 µM (inactive)
- GI50 (HOP-62): > 100 µM (inactive)
- GI50 (SN12C): > 100 µM (inactive)
- GI50 (OVCAR-3): > 100 µM (inactive)
- GI50 (SR): > 100 µM (inactive)
- GI50 (NCI-H460): > 100 µM (inactive)
- GI50 (A498): > 100 µM (inactive)
- GI50 (MOLT-4): > 100 µM (inactive)
- GI50 (NCI-H522): > 100 µM (inactive)
- GI50 (HT-29): > 100 µM (inactive)
- GI50 (Hs-578T): > 100 µM (inactive)
- GI50 (LOX IMVI): > 100 µM (inactive)
- GI50 (OVCAR-8): > 100 µM (inactive)
- GI50 (OVCAR-4): > 100 µM (inactive)
- GI50 (HL-60): > 100 µM (inactive)
- GI50 (HOP-92): > 100 µM (inactive)
- GI50 (TK-10): > 100 µM (inactive)
- GI50 (OVCAR-5): > 100 µM (inactive)
- GI50 (A549): > 100 µM (inactive)
- GI50 (SK-MEL-5): > 100 µM (inactive)
- GI50 (EKVX): > 100 µM (inactive)
- GI50 (K562): > 100 µM (inactive)
- GI50 (HCT-116): > 100 µM (inactive)
- GI50 (KM12): > 100 µM (inactive)
- GI50 (786-0): > 100 µM (inactive)
- GI50 (SNB-75): > 100 µM (inactive)
- GI50 (CAKI-1): > 100 µM (inactive)
- GI50 (ACHN): > 100 µM (inactive)
- GI50 (SK-OV-3): > 100 µM (inactive)
- GI50 (MDA-MB-231): > 100 µM (inactive)
- GI50 (SF-268): > 100 µM (inactive)
- GI50 (SNB-19): > 100 µM (inactive)
- GI50 (MDA-N): > 100 µM (inactive)
- GI50 (IGROV-1): > 100 µM (inactive)
- GI50 (Malme-3M): > 100 µM (inactive)
- GI50 (UACC-62): > 100 µM (inactive)
- GI50 (COLO 205): > 100 µM (inactive)
- GI50 (CCRF-CEM): > 100 µM (inactive)
- GI50 (HCT-15): > 100 µM
- GI50 (SK-MEL-28): > 100 µM (inactive)
- GI50 (UACC-257): > 100 µM (inactive)
- GI50 (M14): > 100 µM (inactive)
- GI50 (MDA-MB-435): > 100 µM (inactive)
- GI50 (RPMI-8226): > 100 µM (inactive)
- GI50 (U-251): > 100 µM (inactive)
- GI50 (NCI-H23): > 100 µM (inactive)
- GI50 (SF-295): > 100 µM (inactive)

Compound: CC(=O)OC12c3ccccc3-c3ccccc3C1C(C(=O)O)C2(Cl)C(=O)O (stereo unspecified)
- GI50 (SW-620): > 10 µM (inactive)
- GI50 (SF-539): > 10 µM (inactive)
- GI50 (UO-31): > 10 µM (inactive)
- GI50 (SK-MEL-2): > 10 µM (inactive)
- GI50 (DU-145): > 10 µM (inactive)
- GI50 (RXF 393): > 10 µM (inactive)
- GI50 (NCI/ADR-RES): > 10 µM (inactive)
- GI50 (MCF7): > 10 µM (inactive)
- GI50 (PC-3): > 10 µM (inactive)
- GI50 (NCI-H226): > 10 µM (inactive)
- GI50 (HOP-62): > 10 µM (inactive)
- GI50 (HCC 2998): > 10 µM (inactive)
- GI50 (SN12C): > 10 µM (inactive)
- GI50 (OVCAR-3): > 10 µM (inactive)
- GI50 (SR): > 10 µM (inactive)
- GI50 (NCI-H460): > 10 µM (inactive)
- GI50 (A498): > 10 µM (inactive)
- GI50 (MOLT-4): > 10 µM (inactive)
- GI50 (NCI-H522): > 10 µM (inactive)
- GI50 (HT-29): > 10 µM (inactive)
- GI50 (Hs-578T): > 10 µM (inactive)
- GI50 (LOX IMVI): > 10 µM (inactive)
- GI50 (OVCAR-8): > 10 µM (inactive)
- GI50 (OVCAR-4): > 10 µM (inactive)
- GI50 (HL-60): > 10 µM (inactive)
- GI50 (HOP-92): > 10 µM (inactive)
- GI50 (TK-10): > 10 µM (inactive)
- GI50 (OVCAR-5): > 10 µM (inactive)
- GI50 (SK-MEL-5): > 10 µM (inactive)
- GI50 (EKVX): > 10 µM (inactive)
- GI50 (K562): > 10 µM (inactive)
- GI50 (KM12): > 10 µM (inactive)
- GI50 (786-0): > 10 µM (inactive)
- GI50 (SNB-75): > 10 µM (inactive)
- GI50 (CAKI-1): > 10 µM (inactive)
- GI50 (ACHN): > 10 µM (inactive)
- GI50 (SK-OV-3): > 10 µM (inactive)
- GI50 (MDA-MB-231): > 10 µM (inactive)
- GI50 (SF-268): > 10 µM (inactive)
- GI50 (SNB-19): > 10 µM (inactive)
- GI50 (MDA-N): > 10 µM (inactive)
- GI50 (IGROV-1): > 10 µM (inactive)
- GI50 (Malme-3M): > 10 µM (inactive)
- GI50 (COLO 205): > 10 µM (inactive)
- GI50 (T47D): > 10 µM (inactive)
- GI50 (CCRF-CEM): > 10 µM (inactive)
- GI50 (HCT-15): > 10 µM
- GI50 (SK-MEL-28): > 10 µM (inactive)
- GI50 (UACC-257): > 10 µM (inactive)
- GI50 (M14): > 10 µM (inactive)
- GI50 (MDA-MB-435): > 10 µM (inactive)
- GI50 (RPMI-8226): > 10 µM (inactive)
- GI50 (U-251): > 10 µM (inactive)
- GI50 (NCI-H23): > 10 µM (inactive)
- GI50 (SF-295): > 10 µM (inactive)
